Experimental data from patent US20250213647A1, “CHEMOKINE RECEPTORS AND ALPHA1 ADRENERGIC RECEPTORS/VASOPRESSIN RECEPTORS 1A HETEROMERS AS DRUG TARGETS FOR DISEASE” (UNIVERSITY OF SOUTH FLORIDA, priority 2022, published 2025).

Tests used:
[1] = target: T1, CCR2 (Homo sapiens, UniProt P41597); assay: Gαi activation assay (TRUPATH BRET), HEK293T cells transfected with CCR2 plus pcDNA3 (CCR2 alone); assay type: cell-based; conditions: cells transfected with CCR2 alone; 10 μM PE or PT; FIG. 4B, 4E
Protocol: HEK293T cells were plated in a 6-well plate and transfected with 0.2 μg each of Gαi1-Rluc8, Gβ3 and Gγ9-GFP2 (Trupath) together with 0.2 μg of mouse or human CCR2 with either pcDNA3.1 or α1b-AR. One day after transfection, cells were trypsinized and replated to 96-well poly-L lysine precoated plates. After overnight incubation, cells were replaced with 0.1% glucose/PBS. Prolume Purple (NanoLight Tech.) or coelenterazine 400a in a final concentration of 5 μM were added in experiments with human or mouse CCR2, respectively, and incubated at room temperature for 3 min. Ligands at various concentrations were added to cells and incubated at room temperature for 5 min before luminescence was measured at 410 nm and 515 nm. […] The BRET changes were calculated by subtracting the BRET signal of untreated cells.

[2] = target: T1, CCR2; assay: Chemotaxis assay, THP-1 cells toward CCL2 (CCR2-mediated); assay type: cell-based; design: host or cells: THP-1; conditions: CCL2 10 nM, mean±SE, read-out: IC50 for inhibition of CCR2-mediated chemotaxis
Protocol: (§1) Cell migration was measured employing the Neuroprobe (Gaithersburg, MD, USA) ChemoTx® Disposable Chemotaxis System. A 96-well Boyden-chamber (30 μL/well, 8 μm pores, 1×10^5 pores/cm^2 pore density) was selected for all chemotaxis experiments. Bottom wells of the Boyden-chamber were loaded with 30 μL of test substances at various concentrations. Top wells of the membrane were loaded with 25 μL of THP-1 cells, THP-1_ADRA1B^KO, wild type THP-1 cells after clonal expansion (=control for THP-1_ADRA1B^KO) or freshly isolated monocytes (200 cells/μL). THP-1 cells were suspended in depleted RPMI1640 (0.5% HyClone™ fetal bovine serum, Sigma); Freshly isolated monocytes were suspended in RPMI1640 (0.5% human platelet poor plasma, Sigma). After 3 hours, transmigrated cells were counted utilizing the Cytation 1 plate reader (BioTek) by direct imaging in high contrast bright field (4×) and post-imaging particle analyses with Gen5 (v3.05) Imaging & Microscopy Software (BioTek). The chemotactic index (CI) was calculated as the ratio of cells that transmigrated in the presence versus the absence of the test solutions.

[3] = system: CCR1; assay: Chemotaxis assay, THP-1 cells toward CCL23 (CCR1-mediated); assay type: cell-based, human; conditions: CCL23 10 nM, mean±SE, read-out: IC50 for inhibition of CCR1-mediated chemotaxis
Protocol: as §1

[4] = target: T2, heteromerization between α1b-AR and CCR2 (Homo sapiens, UniProt P35368); assay: Saturation BRET to assess receptor heterodimerization (α1b-AR-RlucII / CCR2-EYFP, HEK293T); conditions: 10 μM ligand, 5 min; for BRETmax: FIG. 3B; for BRET50 values: FIG. 3C
T2 sequence (P35368 1-520): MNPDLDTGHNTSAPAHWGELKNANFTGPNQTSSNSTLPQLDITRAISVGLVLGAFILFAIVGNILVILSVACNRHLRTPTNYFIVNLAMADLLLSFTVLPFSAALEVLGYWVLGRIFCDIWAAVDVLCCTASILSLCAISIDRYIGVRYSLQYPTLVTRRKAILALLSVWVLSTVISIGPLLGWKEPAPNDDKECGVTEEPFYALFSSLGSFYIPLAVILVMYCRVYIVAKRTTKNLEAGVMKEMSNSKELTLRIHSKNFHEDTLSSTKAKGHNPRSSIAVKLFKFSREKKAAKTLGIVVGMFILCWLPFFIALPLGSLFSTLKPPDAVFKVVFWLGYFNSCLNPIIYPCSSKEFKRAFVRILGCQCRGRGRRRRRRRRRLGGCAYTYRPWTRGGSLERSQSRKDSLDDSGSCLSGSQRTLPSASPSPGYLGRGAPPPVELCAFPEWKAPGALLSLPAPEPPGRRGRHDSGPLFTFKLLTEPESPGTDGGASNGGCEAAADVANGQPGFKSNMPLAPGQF

[5] = system: CR heteromerization partners of α1B/D-ARs (CCR1, CCR2, CXCR4); assay: Chemotaxis assay, THP-1 cells, CR heteromerization partners of α1B/D-ARs taken together; assay type: cell-based, human; conditions: for chemotactic dose-responses for CCL23, CCL2 and CXCL12 in the presence of the ligand: 10 μM of phenylephrine or phentolamine, FIG. 17G-17I
Protocol: as §1

[6] = target: CCR2:α1b-AR heteromers (Homo sapiens, UniProt P35368+P41597); assay: PRESTO-Tango β-arrestin recruitment assay, HTLA cells with CCR2-Tango plus α1b-AR; assay type: cell-based; design: Tango module of the TANGO vector (C); expressed in transfected cells; host or cells: HTLA
Protocol: The assays were performed as described previously (Albee, 2017; Gao, 2022; Albee, 2018; Eby, 2017; Cheng, 2017). HTLA cells were seeded in a 6-well plate and transfected with 750 ng FLAG-CCR2-Tango together with 750 ng pcDNA3.1 or HA-α1b-AR using TransIT-2020 Transfection Reagent. The next day, cells (75,000 cells/well) were plated onto poly-L-Lysine pre-coated 96-well plates and allowed to attach to the plate surface for at least 4 hours prior to treatment. Cells were treated with receptor ligands at the concentrations indicated in the figure legends for 2 h and then replaced with fresh full medium and incubated overnight at 37° C., 5% CO2 in a humidified environment. The following morning, medium was replaced with a 100 μL 1:10 mixture of Bright-Glo (Promega) and PBS. Plates were then incubated at room temperature for 10 min before measuring luminescence on a Biotek Synergy II plate reader. Relative luminescence units (RLU) are expressed as fold changes of RLU vs unstimulated cells.

[7] = system: CCR1; assay: Chemotaxis assay, human monocytes toward CCL23 (CCR1-mediated); assay type: cell-based; conditions: mean±SE, read-out: IC50 for inhibition of CCR1-mediated chemotaxis
Protocol: as §1

[8] = target: T1, CCR2; assay: Chemotaxis assay, human monocytes toward CCL2 (CCR2-mediated); assay type: cell-based; design: host or cells: THP-1; conditions: mean±SE, read-out: IC50 for inhibition of CCR2-mediated chemotaxis
Protocol: as §1

[9] = system: CR heteromerization partners of α1B/D-ARs (CCR1, CCR2, CXCR4); assay: Chemotaxis assay, human monocytes, CR heteromerization partners of α1B/D-ARs taken together; assay type: cell-based; conditions: FIG. 17B
Protocol: as §1

[10] = system: CXCR4; assay: Chemotaxis assay, human monocytes toward CXCL12 (CXCR4-mediated); assay type: cell-based; conditions: mean±SE, read-out: IC50 for inhibition of CXCR4-mediated chemotaxis
Protocol: as §1

T1 sequence (P41597 whole entry): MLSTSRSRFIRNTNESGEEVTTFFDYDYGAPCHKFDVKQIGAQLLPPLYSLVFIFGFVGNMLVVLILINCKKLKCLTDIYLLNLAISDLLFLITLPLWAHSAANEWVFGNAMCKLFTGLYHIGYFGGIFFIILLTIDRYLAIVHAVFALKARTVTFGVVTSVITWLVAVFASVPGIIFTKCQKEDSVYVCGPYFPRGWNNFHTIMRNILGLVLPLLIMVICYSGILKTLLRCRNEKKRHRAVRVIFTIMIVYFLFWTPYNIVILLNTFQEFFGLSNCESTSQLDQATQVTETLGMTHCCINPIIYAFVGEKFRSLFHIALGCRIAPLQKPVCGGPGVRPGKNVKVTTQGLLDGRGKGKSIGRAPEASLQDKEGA
CCR2:α1b-AR heteromers, sequence (P41597 whole entry, one chain of several): as the sequence (P41597 whole entry) above

SMILES | effect on CCL2-induced Gαi1 activation [1] | IC50 [2] [nM] | IC50 [3] [nM] | BRETmax [4] | BRET50 values [4] | chemotactic dose-responses for CCL23, CCL2 and CXCL12 in the presence of the ligand [5] | effect on CCL2-induced β-arrestin recruitment to CCR2 ([6]; 1 μM PT, FIG. 5B) | β-arrestin recruitment to CCR2-Tango by the ligand ([6]; cells co-transfected with CCR2-Tango plus α1b-AR, FIG. 5A) | IC50 [7] [nM] | IC50 [8] [nM] | inhibition of chemotaxis mediated via CR heteromerization partners of α1B/D-ARs [9] | inhibition of chemotaxis mediated via CR heteromerization partners of α1B/D-ARs ([5]; FIG. 17A) | efficacy to induce β-arrestin recruitment to CCR2 ([6]; agonist alone) [fold change RLU] | increase of the efficacy of CCL2 to recruit β-arrestin to CCR2 ([6]; co-stimulated with CCL2 and 1 μM PE vs CCL2 alone) [fold] | efficacy of CCL2 to recruit β-arrestin to CCR2 in the presence of the ligand ([6]; co-stimulated with CCL2 and 1 μM PE, FIG. 5B) [fold change RLU] | IC50 [10] [nM]
Cc1ccc(N(CC2=NCCN2)c2cccc(O)c2)cc1 [phentolamine] | did not affect | 2.7 ± 3.5 | 0.03 ± 0.08 | did not affect | significantly increased | inhibited chemotaxis over the complete range of chemokine concentrations | did not affect | had no effect |  |  |  |  |  |  |  | 
CNC[C@H](O)c1cccc(O)c1 [phenylephrine] | did not affect | 7.5 ± 7.7 | 5 ± 6.7 | did not affect | significantly increased | inhibited chemotaxis over the complete range of chemokine concentrations |  |  | 12 ± 8 | 37 ± 26 | 60-77% | 50-55% | 2.4±0.14 | 3 | 130±12 | 6 ± 3
